Assay results published in publication PMC11335211, “In vivo photocontrol of orexin receptors with a nanomolar light-regulated analogue of orexin-B” (Cellular and Molecular Life Sciences: CMLS, 2024).
Blank lines part the entries; values can stand above or below the compound they belong to. *1 amine or outer side, *2 acyl side, *3 side chain or, on linkers, in order; H or OH if unused. Where a SMILES comes first, the peptide text is derived from it. [ ]: non-standard residue; d: D form. X1 = O=C(Cc1cccc(N=Nc2cccc(CN[*:1])c2)c1)[*:2]

How the values were obtained:
[1] = molecular target: T1, hOX2 (Homo sapiens, UniProt O43614); assay: Radioligand competitive binding assay ([3H]EMPA); parameters: expressed in transfected cells; membranes
T1 sequence (O43614 1-444): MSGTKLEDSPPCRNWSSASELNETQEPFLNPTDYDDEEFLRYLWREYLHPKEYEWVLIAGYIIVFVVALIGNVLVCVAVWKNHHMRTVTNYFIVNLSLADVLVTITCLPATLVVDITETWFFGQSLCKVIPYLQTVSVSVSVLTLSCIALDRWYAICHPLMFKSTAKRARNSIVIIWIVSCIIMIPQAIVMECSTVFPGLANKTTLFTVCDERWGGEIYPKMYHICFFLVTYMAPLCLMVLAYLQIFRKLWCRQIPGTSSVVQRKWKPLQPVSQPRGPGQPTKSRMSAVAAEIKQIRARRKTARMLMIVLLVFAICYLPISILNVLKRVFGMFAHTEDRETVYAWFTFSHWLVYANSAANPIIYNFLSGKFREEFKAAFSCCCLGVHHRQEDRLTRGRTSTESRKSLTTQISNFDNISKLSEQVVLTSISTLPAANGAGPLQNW
Excerpt: The affinity towards OX2 was studied in a competitive radioligand binding assay on membranes derived from HEK-293 cells stably transfected with the human receptor. [^3H]EMPA, an OX2-selective orthosteric antagonist, was used as radioactive tracer to quantify residual binding after competitive displacement in the presence of the unlabeled ligands.^3 Wild-type OX-B and almorexant, a non-selective OX1 and OX2 antagonist, served as controls.^4
[^3H]EMPA (specific activity 27 Ci/mmol) and almorexant were synthesized at Janssen Research & Development LLC (San Diego, CA), while orexin-B was obtained from Bachem (Torrance, CA).
Cell membranes were prepared from a stable pool of HEK-293 cells transfected with the human OX2. Test compounds were dissolved in DMSO (10 mM stock solutions) and diluted in Dulbecco’s phosphate-buffered saline supplemented with 0.1% bovine serum albumin (BSA). Competition studies were performed by incubating the membranes with the OX2-selective antagonist [^3H]EMPA (2 nM) and different concentrations of the test compounds (7 concentrations ranging from 10^−9 to 10^−6 M). After a 60-minute incubation at rt, binding reactions were filtered to separate the excess of free ligand from the membranes. Filters were then counted for radioactivity in a scintillation counter. Nonspecific binding was determined in the presence of 10 µM almorexant.
Specific binding was determined and plotted as a function of the concentration of the compound using GraphPad Prism v8.3.1 (GraphPad Software, San Diego, USA). Data were analyzed by nonlinear regression using a one-site competition model.

[2] = molecular target: T2, human OX1 (Homo sapiens, UniProt O43613); assay: FLIPR Tetra calcium mobilization assay, CHO-K1 cells; type: cell-based; conditions: CHO-K1-hOX1; FLIPR; in words
T2 construct: expressed in transfected cells
T2 sequence (O43613 1-425): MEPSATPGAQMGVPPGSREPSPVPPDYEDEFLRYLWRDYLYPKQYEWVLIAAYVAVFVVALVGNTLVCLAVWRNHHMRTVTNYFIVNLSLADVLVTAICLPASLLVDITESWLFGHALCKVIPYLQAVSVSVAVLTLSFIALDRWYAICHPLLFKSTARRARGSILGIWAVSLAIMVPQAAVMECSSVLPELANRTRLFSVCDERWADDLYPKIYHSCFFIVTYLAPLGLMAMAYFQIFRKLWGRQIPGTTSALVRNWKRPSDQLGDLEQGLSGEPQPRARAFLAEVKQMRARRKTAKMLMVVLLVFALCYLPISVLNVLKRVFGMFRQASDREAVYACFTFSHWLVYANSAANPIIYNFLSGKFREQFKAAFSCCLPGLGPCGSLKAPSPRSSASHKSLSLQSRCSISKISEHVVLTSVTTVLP
Method: (§1) Samples of trans phOX were kept in the dark both prior to and during the whole duration of the experiment to avoid undesired photoconversion caused by environmental light. Unless differently stated, data for cis phOX were obtained by pre-illuminating the samples for 10 min with 365 nm UV light.
(§2) PFSK-1 cells were cultured in RPMI 1640 supplemented with 10% fetal bovine serum (FBS), 100 units/ml penicillin, and 100 µg/ml streptomycin. Chinese hamster ovary-K1 (CHO-K1) cells stably transfected to express human OX1 were cultured in Dulbecco’s Modified Eagle’s Medium/Nutrient Mixture F-12 Ham (DMEM/F12 1:1) medium supplemented with 10% FBS and 600 µg/ml G418. All cell lines were grown at 37 °C in 5% CO2.
(§3) Cells were plated at 50,000 cells/well in 96-well black-wall plates with poly-D-lysine-coated clear bottoms and grown overnight at 37 °C in 5% CO2. […] Calcium-mediated changes in fluorescence were monitored in a Fluorometric Imaging Plate Reader (FLIPR) Tetra instrument (Molecular Devices, USA). Fluorescence intensity was measured for 12 s to establish baseline fluorescence before addition of the test compound (20 µL/well) and further readings for a total of 155 s (excitation at 470–495 nm, detection at 515–575 nm). […]
(§4) Raw data from the FLIPR Tetra was exported as the difference between maximum and minimum fluorescence observed for each well. […] Agonist potencies (EC50) are expressed as means + SD.

[3] = molecular target: T1, hOX2; assay: FLIPR Tetra calcium mobilization assay, PFSK-1 cells; type: cell-based; conditions: PFSK-1, hOX2; FLIPR; in words
Method: as §1, §2, §3, §4

[4] = Resistance to photofatigue; type: physicochemical; conditions: several UV (365 nm)/blue (455 nm) cycles of 3 min; 25 µM in PBS pH 7.4, 25 °C; UPLC
Method: Stability to photodegradation was evaluated by exposing a phOX sample (25 µM in PBS at pH 7.4 and 25 °C) to alternating intervals (3 min each) of UV and visible light illumination (365 and 455 nm, respectively). The trans-cis isomeric distributions under different illumination conditions were measured by integrating the area of the corresponding peaks after UPLC analysis. These values were then converted to isomer percentages and plotted. After several cycles, no reduction could be observed in the isomers’ peak area, thus confirming photorexin stability to photodegradation.

[5] = molecular target: T1, hOX2; assay: In vitro single-cell calcium imaging, tsA201-hOX2; type: cell-based; parameters: expressed in transfected cells; host or cells: tsA201 (transformed human kidney cells), transient, co-transfected with R-GECO1; conditions: 100 nM, AUC normalized to dark-adapted phOX, mean, n = 20 cells
Method: Transformed human kidney tsA201 cells were purchased from the European Collection of Authenticated Cell Culture. Cells were maintained at 37 °C in a humidified atmosphere with 5% CO2 and grown in Dulbecco’s Modified Eagle’s Medium/Nutrient Mixture F-12 Ham (DMEM/F12 1:1) medium (Life Technologies), supplemented with 10% FBS (Life Technologies) and 1% penicillin/streptomycin (Sigma-Aldrich).
Clones of GFP-labelled orexin receptors were kindly provided by Prof. Jyrki Kukkonen and the exact protein sequences have been reported by Putula et al.. The plasmid for the genetically encoded calcium indicator R-GECO1 was acquired from Addgene. Cells were transiently transfected with hOX1 or hOX2 receptors and R-GECO1 with X-tremeGENE 9 DNA Transfection Reagent (Roche Applied Science) following the manufacturer’s instructions. After 24 h, cells were harvested with accutase (Sigma-Aldrich) and plated onto 16-mm glass coverslips (Fisher Scientific) pre-treated with poly-L-Lysine (Sigma-Aldrich) to allow cell adhesion. Experiments were performed using pre-confluent cultures between 48 and 72 h after transfection. […]
Images were analyzed using FIJI (ImageJ). Data were analyzed and processed using GraphPad Prism v8.3.1. Statistical differences were determined by one-way ANOVA followed by Tukey’s multiple comparison post-hoc test. […]

[6] = parameters: method as in 2 sources, one per row (each row's own in cited_ref): ref 75–77 = [75]; PMID 10087007; 75. Kastin AJ Akerstrom V Orexin A but not orexin B rapidly enters brain from blood by simple diffusion J Pharmacol Exp Ther 1999 289 219 223 10087007 || [76]; PMID 12626669; doi:10.1113/jphysiol.2002.038729; 76. John J Wu M-F Kodama T Siegel JM Intravenously administered hypocretin-1 alters brain amino acid release: an in vivo microdialysis study in rats J Physiol 2003 548 557 562 10.1113/jphysiol.2002.03 || [77]; PMID 14746374; doi:10.1093/sleep/26.8.953; 77. Fujiki N Yoshida Y Ripley B Mignot E Nishino S Effects of IV and ICV hypocretin-1 (orexin A) in hypocretin receptor-2 gene mutated narcoleptic dogs and IV hypocretin-1 replacement therapy in a hyp ||| ref 75 = [75]; PMID 10087007; 75. Kastin AJ Akerstrom V Orexin A but not orexin B rapidly enters brain from blood by simple diffusion J Pharmacol Exp Ther 1999 289 219 223 10087007; conditions: intravenous administration or blood-free perfusion in mammals; cited from earlier work
[7] = system: OX1; conditions: in words; cited from earlier work
Excerpt: (§5) Among these, a family of neuroexcitatory peptides known as orexins (or hypocretins) is critically involved in regulating sleep and wakefulness, energy homeostasis, and reward. Orexin signaling is mediated by two closely related G protein-coupled receptors (GPCRs) – OX1 and OX2 (orexin) receptors – which are strongly conserved among mammals. While orexin cell bodies are concentrated in the hypothalamic area, orexin receptors are widely expressed in the central nervous system (CNS). Their endogenous ligands are two peptides, named ...

[8] = system: OX2; conditions: in words; cited from earlier work
Excerpt: as §5

[9] = system: OX1 receptor; conditions: membrane-based binding assay; ref Langmead et al., 5 (SI); cited from earlier work
Excerpt: Although the lack of binding with all three forms of OX-B - including the native ligand control - came unexpected, similar findings had already been observed for the OX1 receptor.

Compound: CNC(=O)[C@@H](c1ccccc1)N1CCc2cc(OC)c(OC)cc2[C@@H]1CCc1ccc(C(F)(F)F)cc1 [almorexant]
Ki [1]: 3 nM
inhibition of [3H]EMPA binding ([1]; control ligands, HEK-293-hOX2 membranes, [3H]EMPA 2 nM, 60 min rt, 10^-9 to 10^-6 M, two independent experiments in triplicates): fully displaced the radioligand

potency [2]: high nanomolar potency
potency [3]: high nanomolar potency
retained activity under UV, relative to dark-adapted peptide ([5]; 365 nm (cis-enriched)): 6%
recovery of calcium response under blue light, relative to initial response ([5]; 455 nm after UV): 52%
Compound: CC[C@H](C)[C@H](NC(=O)CNC(=O)[C@H](C)NC(=O)[C@H](C)NC(=O)Cc1cccc(N=Nc2cccc(CNC(=O)CNC(=O)[C@H](CO)NC(=O)[C@H](C)NC(=O)[C@H](CCC(N)=O)NC(=O)[C@H](CC(C)C)NC(=O)[C@H](CC(C)C)NC(=O)[C@H](CCCNC(=N)N)NC(=O)[C@H](CCC(N)=O)NC(=O)[C@H](CC(C)C)NC(=O)[C@H](CCCNC(=N)N)NC(=O)CNC(=O)[C@H](CCC(N)=O)NC(=O)[C@H](CC(C)C)NC(=O)CN)c2)c1)C(=O)N[C@@H](CC(C)C)C(=O)N[C@H](C(=O)N[C@@H](CCSC)C(N)=O)[C@@H](C)O [photorexin] (H-GLQGRLQRLLQASG[X1]AAGILTM-NH2)
degradation or bleaching over light cycles [4]: without significant degradation or bleaching

Compound: OX-A: endogenous orexin peptide with two disulfide bridges (QPLPDCCRQKTCSCRLYELLHGAGNHAAGILTL; not fully specified; Orexin-A; UniProt O43612 34-66, looked up)
blood-brain barrier penetration [6]: penetrate the blood-brain barrier by simple diffusion
affinity at OX1 [7]: high affinity
affinity at OX2 [8]: high affinity
occupation of OX1 orthosteric site versus [3H]SB-674042 [9]: failed to occupy the receptor orthosteric site
